{"source": "patent EP0294258A1", "about": "“Hydrazine derivatives, process for obtaining them and pharmaceutical composition containing them” (priority 1987, dated 1988)", "key": {"[1]": {"system": "rat spontanément hypertendu (S.H.R.)", "test": "Antihypertensive activity in the spontaneously hypertensive rat (SHR)", "format": "in vivo", "settings": "for minimal effective dose: Rattus norvegicus, read-out: Activité anti-hypertensive SHR Dose minimale active"}, "Acute toxicity (DL 50)": {"test": "Acute toxicity (DL 50)", "settings": "in vivo"}, "souris [2]": {"system": "souris", "test": "Analgesic activity, hot plate", "format": "in vivo", "settings": "I.P."}, "souris [3]": {"system": "souris", "test": "Yohimbine test", "settings": "in vivo"}, "souris [4]": {"system": "souris", "test": "Spontaneous motility", "format": "in vivo", "settings": "I.P."}, "rat": {"system": "rat", "test": "Anti-inflammatory activity, carrageenan test", "format": "in vivo", "settings": "I.P."}, "souris [5]": {"system": "souris", "test": "Motor incoordination", "format": "in vivo", "settings": "I.P."}, "souris [6]": {"system": "souris", "test": "Potentiation of barbiturate sleep", "format": "in vivo", "settings": "I.P."}, "rat normotendu": {"system": "rat normotendu", "test": "Cardiovascular effects in the normotensive rat", "format": "in vivo", "settings": "50 mg.kg^-1 I.P."}, "souris [7]": {"system": "souris", "test": "Exploratory activity", "format": "in vivo", "settings": "Mus musculus, ip; I.P.; read-out: diminue l'activité d'exploration D.E.50"}, "souris [8]": {"system": "souris", "test": "Analgesic activity, P.B.Q. test", "settings": "in vivo"}, "souris [9]": {"system": "souris", "test": "Apomorphine test", "settings": "in vivo"}, "souris [10]": {"system": "souris", "test": "Oxotremorine test", "format": "in vivo", "settings": "à forte dose"}, "souris [11]": {"system": "souris", "test": "Hypothermia", "format": "in vivo", "settings": "I.P."}, "souris [12]": {"system": "souris", "test": "Antagonism of amphetamine hypermotility", "format": "in vivo", "settings": "I.P."}}, "note": "Read-outs that look alike come from different tables or passages of the source."}
{"smiles": "CC(C)(O)C(=O)NN=Cc1ccccc1Cl", "note": "[1a, reference compound]", "values": [{"measurement": "Activité anti-hypertensive SHR Dose minimale active", "setting": "[1]; route not given", "result": "inactif"}, {"measurement": "LD50", "setting": "Acute toxicity (DL 50); ip, I.P.", "result": 490, "unit": "mg/kg"}]}
{"smiles": "CC(=NNC(=O)CC(C)(C)O)c1ccccc1Cl", "note": "[1e, reference compound]", "values": [{"measurement": "Activité anti-hypertensive SHR Dose minimale active", "setting": "[1]; route not given", "result": "inactif"}, {"measurement": "LD50", "setting": "Acute toxicity (DL 50); ip, I.P.", "result": 227, "unit": "mg/kg"}]}
{"smiles": "CC(O)C(=O)NN=Cc1ccccc1Cl", "note": "(stereo not shown) [3a, reference compound]", "values": [{"measurement": "Activité anti-hypertensive SHR Dose minimale active", "setting": "[1]; route not given", "result": "inactif"}, {"measurement": "LD50", "setting": "Acute toxicity (DL 50); route not given", "result": 300, "unit": "mg/kg"}]}
{"smiles": "COCC(=O)NN=Cc1ccccc1Cl", "note": "[6a, reference compound]", "values": [{"measurement": "Activité anti-hypertensive SHR Dose minimale active", "setting": "[1]; route not given", "result": "inactif"}, {"measurement": "LD50", "setting": "Acute toxicity (DL 50); ip, I.P.", "result": 477, "unit": "mg/kg"}]}
{"smiles": "CC(=NNC(=O)C(C)O)c1ccccc1Cl", "note": "(stereo not shown) [Exemple 3, (hydroxy-2 propanoyl)-1 (orthochlorophényl-1 éthylidène-1)-2 hydrazine]", "values": [{"measurement": "minimal effective dose", "setting": "[1]; ip, I.P.", "result": 12.5, "unit": "mg/kg"}, {"measurement": "LD50", "setting": "Acute toxicity (DL 50); ip, I.P.", "result": 240, "unit": "mg/kg"}]}
{"smiles": "COCC(=O)NN=C(C)c1ccccc1Cl", "note": "[Exemple 6, (méthoxy-2 acétyl)-1 (orthochlorophényl-1 éthylidène-1)-2 hydrazine]", "values": [{"measurement": "minimal effective dose", "setting": "[1]; ip, I.P.", "result": 6.25, "unit": "mg/kg"}, {"measurement": "LD50", "setting": "Acute toxicity (DL 50); ip, I.P.", "result": 200, "unit": "mg/kg"}]}
{"smiles": "CC(=NNC(=O)CN)c1ccccc1Cl", "note": "[Exemple 7, (amino-2 acétyl)-1 (orthochlorophényl-1 éthylidène-1)-2 hydrazine]", "values": [{"measurement": "minimal effective dose", "setting": "[1]; po, P.O.", "result": 2, "unit": "mg/kg"}, {"measurement": "LD50", "setting": "Acute toxicity (DL 50); ip, I.P.", "result": 143, "unit": "mg/kg"}]}
{"smiles": "NCC(=O)NN=Cc1ccccc1Cl", "note": "[7a, reference compound]", "values": [{"measurement": "Activité anti-hypertensive SHR Dose minimale active", "setting": "[1]; route not given", "result": "inactif"}, {"measurement": "LD50", "setting": "Acute toxicity (DL 50); ip, I.P.", "result": 360, "unit": "mg/kg"}]}
{"smiles": "CC(=NNC(=O)C(C)(C)O)c1ccc(Cl)cc1", "note": "[1b, reference compound]", "values": [{"measurement": "Activité anti-hypertensive SHR Dose minimale active", "setting": "[1]; route not given", "result": "inactif"}, {"measurement": "LD50", "setting": "Acute toxicity (DL 50); ip, I.P.", "result": 150, "unit": "mg/kg"}]}
{"smiles": "CC(C)(O)CC(=O)NN=Cc1ccccc1Cl", "note": "[1d, reference compound]", "values": [{"measurement": "Activité anti-hypertensive SHR Dose minimale active", "setting": "[1]; route not given", "result": "inactif"}, {"measurement": "LD50", "setting": "Acute toxicity (DL 50); ip, I.P.", "result": 433, "unit": "mg/kg"}]}
{"smiles": "CCCCC(=NNC(=O)C(C)(C)O)c1ccccc1Cl", "note": "[Exemple 26, (hydroxy-2 isobutyroyl)-1 (chloro-2 phényl-1 pentylidène-1)-2 hydrazine]", "values": [{"measurement": "minimal effective dose", "setting": "[1]; ip, I.P.", "result": 6.25, "unit": "mg/kg"}, {"measurement": "LD50", "setting": "Acute toxicity (DL 50); ip, I.P.", "result": "> 400", "unit": "mg/kg"}]}
{"smiles": "CC(=NNC(=O)C(C)(C)O)c1ccccc1Cl", "note": "[Exemple 1, (hydroxy-2 isobutyroyl)-1 (orthochlorophényl-1 éthylidène-1)-2 hydrazine]", "values": [{"measurement": "minimal effective dose", "setting": "[1]; po, P.O.", "result": 2, "unit": "mg/kg"}, {"measurement": "fréquence cardiaque", "setting": "[1]; administration P.O.", "result": "n'est pas modifiée de manière significative"}, {"measurement": "action antihypertensive", "setting": "[1]; administration répétée sur 5 jours, 1,5 mg.kg^-1 P.O.", "result": "confirment l'action antihypertensive"}, {"measurement": "diminue la pression artérielle du rat spontanément hypertendu (S.H.R.) D.E.so", "setting": "[1]; administration unique, I.P.", "result": "1,9 mg.kg^-1"}, {"measurement": "action antihypertensive D.E.50", "setting": "[1]; administration unique, P.O.", "result": 2, "unit": "mg/kg"}, {"measurement": "activité antihypertensive (dose)", "setting": "[1]; per os, rat SHR printed for MP 440 only", "result": 2, "unit": "mg/kg"}, {"measurement": "activité analgésique \"plaque chauffante\" D.E.50", "setting": "souris [2]", "result": 6, "unit": "mg/kg"}, {"measurement": "test de la yohimbine", "setting": "souris [3]", "result": "inactif"}, {"measurement": "diminue la motilité spontanée D.E.50", "setting": "souris [4]", "result": 10, "unit": "mg/kg"}, {"measurement": "anti-inflammatoire sur le test à la carraghénine D.E.so", "setting": "rat", "result": 38, "unit": "mg/kg"}, {"measurement": "LD50", "setting": "Acute toxicity (DL 50); ip, I.P.", "result": 482, "unit": "mg/kg"}, {"measurement": "incoordination motrice uniquement à forte dose", "setting": "souris [5]", "result": 50, "unit": "mg/kg"}, {"measurement": "potentialise le sommeil barbiturique dès la dose de", "setting": "souris [6]", "result": "≥ 12,5 mg.kg^-1"}, {"measurement": "pression artérielle du rat normotendu", "setting": "rat normotendu", "result": "sans modifier"}, {"measurement": "rythme cardiaque du rat normotendu", "setting": "rat normotendu", "result": "augmente significativement"}, {"measurement": "ED50", "setting": "souris [7]", "result": 27, "unit": "mg/kg"}, {"measurement": "activité analgésique au test à la P.B.Q.", "setting": "souris [8]", "result": "faible"}, {"measurement": "test à l'apomorphine", "setting": "souris [9]", "result": "inactif"}, {"measurement": "test à l'oxotrémorine", "setting": "souris [10]", "result": "modifie de façon peu nette"}, {"measurement": "hypothermie uniquement à forte dose", "setting": "souris [11]", "result": 50, "unit": "mg/kg"}, {"measurement": "antagonise l'hypermotilité amphétaminique à partir de (dose)", "setting": "souris [12]", "result": "≥ 12,5 mg.kg^-1"}]}
{"smiles": "CC(C)(O)C(=O)NN=Cc1ccc(Cl)cc1", "note": "[1c, reference compound]", "values": [{"measurement": "Activité anti-hypertensive SHR Dose minimale active", "setting": "[1]; route not given", "result": "inactif"}, {"measurement": "LD50", "setting": "Acute toxicity (DL 50); ip, I.P.", "result": 660, "unit": "mg/kg"}]}
{"smiles": "CC(=NNC(=O)CO)c1ccccc1Cl", "note": "[Exemple 4, (hydroxy-2 acétyl)-1 (orthochlorophényl-1 éthylidène-1)-2 hydrazine]", "values": [{"measurement": "minimal effective dose", "setting": "[1]; route not given", "result": 3.13, "unit": "mg/kg"}, {"measurement": "LD50", "setting": "Acute toxicity (DL 50); ip, I.P.", "result": 583, "unit": "mg/kg"}]}
{"smiles": "NC(=O)C(=O)NN=Cc1ccccc1Cl", "note": "[9a, reference compound]", "values": [{"measurement": "Activité anti-hypertensive SHR Dose minimale active", "setting": "[1]; route not given", "result": "inactif"}, {"measurement": "LD50", "setting": "Acute toxicity (DL 50); ip, I.P.", "result": "> 400", "unit": "mg/kg"}]}
{"smiles": "CC(=NNC(=O)C(N)=O)c1ccccc1Cl", "note": "[Exemple 9, oxamoyl-1 (orthochlorophényl-1 éthylidène-1)-2 hydrazine]", "values": [{"measurement": "minimal effective dose", "setting": "[1]; ip, I.P.", "result": 12.5, "unit": "mg/kg"}, {"measurement": "LD50", "setting": "Acute toxicity (DL 50); ip, I.P.", "result": "> 400", "unit": "mg/kg"}]}
{"smiles": "CCC(=NNC(=O)C(C)(C)O)c1ccccc1Cl", "note": "[Exemple 16, (hydroxy-2 isobutyroyl)-1 (orthochlorophényl-1 propylidène-1)-2 hydrazine]", "values": [{"measurement": "minimal effective dose", "setting": "[1]; ip, I.P.", "result": 6.25, "unit": "mg/kg"}, {"measurement": "LD50", "setting": "Acute toxicity (DL 50); ip, I.P.", "result": 179, "unit": "mg/kg"}]}
{"smiles": "CSCC(=O)NN=C(C)c1ccccc1Cl", "note": "[Exemple 8, (méthylthio-2 acétyl)-1 (orthochlorophényl-1 éthylidène-1)-2 hydrazine]", "values": [{"measurement": "minimal effective dose", "setting": "[1]; ip, I.P.", "result": 12.5, "unit": "mg/kg"}, {"measurement": "LD50", "setting": "Acute toxicity (DL 50); ip, I.P.", "result": "> 400", "unit": "mg/kg"}]}
